From ChEMBL document CHEMBL1201861, “Genomics of Drug Sensitity in Cancer screening data, Wellcome Trust Sanger Institute”
Several values for one entry are separate records, joined by “and”; a condition that tells them apart may be missing. Equal entries are not always repeated. Where a SMILES comes first, the peptide text is derived from it. The star is where a group is joined. Cbz = O=C(OCc1ccccc1)*

Key:
Experiment in all cases: cells
[1] = system: TE-9; type: functional, cell-based, Homo sapiens;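 note: cell growth inhibition, measured with a cell viability readout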
Description: SANGER: Inhibition of human TE-9 cell growth in a cell viability assay.

[2] = system: LU-139; type: functional, cell-based, Homo sapiens
Description: SANGER: Inhibition of human LU-139 cell growth in a cell viability assay.

[3] = system: CCRF-CEM; type: functional, cell-based, Homo sapiens;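 note: inhibition of CCRF-CEM cell growth, measured by a cell viability assay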
Description: SANGER: Inhibition of human CCRF-CEM cell growth in a cell viability assay.

[4] = system: MS-1; type: functional, cell-based, Homo sapiens;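 note: growth inhibition of MS-1 cells, read out by cell viability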
Description: SANGER: Inhibition of human MS-1 cell growth in a cell viability assay.

[5] = system: GB-1; type: functional, cell-based, Homo sapiens;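 note: growth of GB-1 cells judged by a viability assay, IC50 marks the concentration inhibiting growth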
Description: SANGER: Inhibition of human GB-1 cell growth in a cell viability assay.

[6] = system: NCI-H526; type: functional, cell-based, Homo sapiens;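 note: growth inhibition of the human NCI-H526 cell line, measured by a cell viability assay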
Description: SANGER: Inhibition of human NCI-H526 cell growth in a cell viability assay.

[7] = system: NB13; type: functional, cell-based, Homo sapiens;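 note: cell viability readout measuring growth inhibition of human NB13 cells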
Description: SANGER: Inhibition of human NB13 cell growth in a cell viability assay.

[8] = system: SK-MEL-2; type: functional, cell-based, Homo sapiens;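 note: growth inhibition of human SK-MEL-2 cells measured with a cell viability assay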
Description: SANGER: Inhibition of human SK-MEL-2 cell growth in a cell viability assay.

[9] = system: SW684; type: functional, cell-based, Homo sapiens; details: read-out: IC50;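 note: growth inhibition of human SW684 cells, measured by a cell viability assay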
Description: SANGER: Inhibition of human SW684 cell growth in a cell viability assay.

[10] = system: KY821; type: functional, cell-based, Homo sapiens;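 note: growth inhibition of human KY821 cells, read out by a cell viability assay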
Description: SANGER: Inhibition of human KY821 cell growth in a cell viability assay.

[11] = system: NB6; type: functional, cell-based, Homo sapiens;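 note: growth inhibition of NB6 cells, read out by a cell viability assay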
Description: SANGER: Inhibition of human NB6 cell growth in a cell viability assay.

[12] = system: ES8; type: functional, cell-based, Homo sapiens;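 note: growth inhibition of human ES8 cells, read out with a cell viability assay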
Description: SANGER: Inhibition of human ES8 cell growth in a cell viability assay.

[13] = system: NOS-1; type: functional, cell-based, Homo sapiens;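 note: growth inhibition of the human NOS-1 cell line, read out with a cell viability assay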
Description: SANGER: Inhibition of human NOS-1 cell growth in a cell viability assay.

[14] = system: NCI-H69; type: functional, cell-based, Homo sapiens;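 note: growth inhibition of the cell line, read out with a cell viability assay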
Description: SANGER: Inhibition of human NCI-H69 cell growth in a cell viability assay.

[15] = system: ONS-76; type: functional, cell-based, Homo sapiens;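 note: growth inhibition of human ONS-76 cells, read out with a cell viability assay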
Description: SANGER: Inhibition of human ONS-76 cell growth in a cell viability assay.

[16] = system: SJSA-1; type: functional, cell-based, Homo sapiens;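 note: growth inhibition of human SJSA-1 cells, read out through a cell viability measurement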
Description: SANGER: Inhibition of human SJSA-1 cell growth in a cell viability assay.

[17] = system: CTV-1; type: functional, cell-based, Homo sapiens;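 note: growth inhibition of the cell line, read out with a cell viability assay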
Description: SANGER: Inhibition of human CTV-1 cell growth in a cell viability assay.

[18] = system: GR-ST; type: functional, cell-based, Homo sapiens
Description: SANGER: Inhibition of human GR-ST cell growth in a cell viability assay.

[19] = system: LC-2-ad; type: functional, cell-based, Homo sapiens;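 note: growth inhibition of human LC-2-ad cells, read out with a cell viability assay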
Description: SANGER: Inhibition of human LC-2-ad cell growth in a cell viability assay.

[20] = system: JVM-3; type: functional, cell-based, Homo sapiens;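 note: growth inhibition of human JVM-3 cells, read out with a cell viability assay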
Description: SANGER: Inhibition of human JVM-3 cell growth in a cell viability assay.

[21] = system: NCI-H1838; type: functional, cell-based, Homo sapiens;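 note: growth inhibition of NCI-H1838 cells, determined with a cell viability readout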
Description: SANGER: Inhibition of human NCI-H1838 cell growth in a cell viability assay.

[22] = system: MZ7-mel; type: functional, cell-based, Homo sapiens;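 note: growth inhibition of human MZ7-mel cells, measured by a cell viability assay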
Description: SANGER: Inhibition of human MZ7-mel cell growth in a cell viability assay.

[23] = system: KURAMOCHI; type: functional, cell-based, Homo sapiens;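 note: growth inhibition of KURAMOCHI cells, read out with a cell viability assay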
Description: SANGER: Inhibition of human KURAMOCHI cell growth in a cell viability assay.

[24] = system: HCE-4; type: functional, cell-based; details: Homo sapiens;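 note: cell viability assay measuring inhibition of growth in the human HCE-4 cell line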
Description: SANGER: Inhibition of human HCE-4 cell growth in a cell viability assay.

[25] = system: HD-MY-Z; type: functional, cell-based, Homo sapiens;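 note: growth inhibition of HD-MY-Z cells, read out with a cell viability assay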
Description: SANGER: Inhibition of human HD-MY-Z cell growth in a cell viability assay.

[26] = system: U-266; type: functional, cell-based, Homo sapiens
Description: SANGER: Inhibition of human U-266 cell growth in a cell viability assay.

[27] = system: NMC-G1; type: functional, cell-based, Homo sapiens;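 note: growth inhibition of the NMC-G1 cell line, measured with a cell viability read-out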
Description: SANGER: Inhibition of human NMC-G1 cell growth in a cell viability assay.

[28] = system: MN-60; type: functional, cell-based, Homo sapiens;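 note: growth inhibition of the MN-60 cell line, determined with a cell viability assay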
Description: SANGER: Inhibition of human MN-60 cell growth in a cell viability assay.

[29] = system: TK-10; type: functional, cell-based, Homo sapiens;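 note: growth inhibition of TK-10 cells, read out in a cell viability assay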
Description: SANGER: Inhibition of human TK10 cell growth in a cell viability assay.

[30] = system: KGN; type: functional, cell-based, Homo sapiens;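 note: growth inhibition of KGN cells, read out with a cell viability assay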
Description: SANGER: Inhibition of human KGN cell growth in a cell viability assay.

[31] = system: KG-1; type: functional, cell-based, Homo sapiens;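 note: growth inhibition of KG-1 cells, read out by a cell viability assay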
Description: SANGER: Inhibition of human KG-1 cell growth in a cell viability assay.

[32] = system: LU-134-A; type: functional, cell-based, Homo sapiens
Description: SANGER: Inhibition of human LU-134-A cell growth in a cell viability assay.

[33] = system: LAMA-84; type: functional, cell-based, Homo sapiens;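 note: growth inhibition of LAMA-84 cells, read out with a cell viability assay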
Description: SANGER: Inhibition of human LAMA-84 cell growth in a cell viability assay.

[34] = system: VA-ES-BJ; type: functional, cell-based, Homo sapiens;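 note: growth inhibition of the VA-ES-BJ cell line, read out by a cell viability assay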
Description: SANGER: Inhibition of human VA-ES-BJ cell growth in a cell viability assay.

[35] = system: SF-126; type: functional, cell-based, Homo sapiens;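 note: growth inhibition of human SF126 cells, read out with a cell viability assay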
Description: SANGER: Inhibition of human SF126 cell growth in a cell viability assay.

[36] = system: 8-MG-BA; type: functional, cell-based, Homo sapiens;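 note: growth inhibition of 8-MG-BA cells, read out with a cell viability assay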
Description: SANGER: Inhibition of human 8-MG-BA cell growth in a cell viability assay.

[37] = system: MHH-PREB-1; type: functional, cell-based, Homo sapiens;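 note: cell viability assay measuring inhibition of proliferation of human MHH-PREB-1 cells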
Description: SANGER: Inhibition of human MHH-PREB-1 cell growth in a cell viability assay.

[38] = system: A101D; type: functional, cell-based, Homo sapiens;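 note: growth inhibition of the cell line, measured with a viability assay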
Description: SANGER: Inhibition of human A101D cell growth in a cell viability assay.

[39] = system: LNCaP-Clone-FGC; type: functional, cell-based, Homo sapiens
Description: SANGER: Inhibition of human LNCaP-Clone-FGC cell growth in a cell viability assay.

[40] = system: GI-ME-N; type: functional, cell-based, Homo sapiens;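 note: growth inhibition of human GI-ME-N cells, read out with a cell viability assay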
Description: SANGER: Inhibition of human GI-ME-N cell growth in a cell viability assay.

[41] = system: 697; type: functional, cell-based, Homo sapiens
Description: SANGER: Inhibition of human 697 cell growth in a cell viability assay.

[42] = system: CAS-1; type: functional, cell-based, Homo sapiens;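 note: growth inhibition of CAS-1 cells, measured with a cell viability assay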
Description: SANGER: Inhibition of human CAS-1 cell growth in a cell viability assay.

[43] = system: EOL1; type: functional, cell-based, Homo sapiens;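 note: growth inhibition of EoL-1 cells, read out by a cell viability assay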
Description: SANGER: Inhibition of human EoL-1-cell cell growth in a cell viability assay.

[44] = system: D283 Med; type: functional, cell-based, Homo sapiens
Description: SANGER: Inhibition of human D-283MED cell growth in a cell viability assay.

[45] = system: K5; type: functional, cell-based, Homo sapiens
Description: SANGER: Inhibition of human K5 cell growth in a cell viability assay.

[46] = system: HCE-T; type: functional, cell-based, Homo sapiens;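 note: cell viability assay read-out, reporting inhibition of HCE-T cell growth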
Description: SANGER: Inhibition of human HCE-T cell growth in a cell viability assay.

[47] = system: NCI-H1092; type: functional, cell-based, Homo sapiens;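 note: cell growth inhibition measured with a cell viability assay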
Description: SANGER: Inhibition of human NCI-H1092 cell growth in a cell viability assay.

[48] = system: KS-1; type: functional, cell-based; details: Homo sapiens;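 note: growth inhibition of KS-1 cells, read out with a cell viability assay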
Description: SANGER: Inhibition of human KS-1 cell growth in a cell viability assay.

[49] = system: MMAC-SF; type: functional, cell-based; details: Homo sapiens;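 note: growth inhibition of human MMAC-SF cells, read out with a cell viability assay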
Description: SANGER: Inhibition of human MMAC-SF cell growth in a cell viability assay.

[50] = system: SH-4; type: functional, cell-based; details: Homo sapiens;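 note: growth inhibition of SH-4 cells, read out with a cell viability assay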
Description: SANGER: Inhibition of human SH-4 cell growth in a cell viability assay.

[51] = system: KNS-42; type: functional, cell-based; details: Homo sapiens;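 note: growth inhibition of KNS-42 cells, read out with a cell viability assay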
Description: SANGER: Inhibition of human KNS-42 cell growth in a cell viability assay.

Measured: IC50

CC(C)C[C@@H](C=O)NC(=O)[C@H](CC(C)C)NC(=O)[C@H](CC(C)C)NC(=O)OCc1ccccc1 [MG-132] (Cbz-Leu-Leu-Leu-aldehyde)
398 nM and > 1000 nM: [36]; 8-mg-ba
223 nM and > 1000 nM: [34]; va-es-bj
248 nM and > 1000 nM: [12]; es8
> 1000 nM: [2]; lu-139 | [4]; Homo sapiens, MS-1 | [4]; ms-1 | [6]; nci-h526 | [7]; nb13 | [8]; sk-mel-2 | [9]; sw684 | [10]; ky821 | [11]; nb6 | [13]; nos-1 | [16]; Homo sapiens, SJSA-1 | [16]; sjsa-1 | [17]; ctv-1 | [18]; gr-st | [19]; Homo sapiens, LC-2-ad | [19]; lc-2-ad | [20]; jvm-3 | [21]; nci-h1838 | [23]; kuramochi | [24] | [26]; u-266 | [27]; nmc-g1 | [28]; Homo sapiens, MN-60 | [28]; mn-60 | [30]; Homo sapiens, KGN | [30]; kgn | [31]; kg-1 | [32]; Homo sapiens, LU-134-A | [32]; lu-134-a | [37]; mhh-preb-1 | [39]; Homo sapiens, LNCaP-Clone-FGC | [39]; lncap-clone-fgc | [41] | [43]; Homo sapiens, EOL1 | [43]; eol1 | [44]; d283 med | [45]; k5 | [46]; hce-t
193 nM and > 1000 nM: [40]; gi-me-n
151 nM and > 1000 nM: [14]; nci-h69
610 nM and > 1000 nM: [1]; te-9
32.8 nM and 301 nM: [38]; a101d
129 nM and 899 nM: [15]; ons-76
155 nM and > 1000 nM: [42]; cas-1
233 nM and > 1000 nM: [25]; hd-my-z
477 nM and > 1000 nM: [3]; ccrf-cem
721 nM and > 1000 nM: [5]; gb-1
219 nM and > 1000 nM: [33]; lama-84
254 nM and > 1000 nM: [29]; tk-10
388 nM and > 1000 nM: [47]; nci-h1092
990 nM and > 1000 nM: [35]; sf-126
264 nM and > 1000 nM: [22]; mz7-mel

CC1=C(/C=C/C(C)=C/C=C/C(C)=C/C(=O)O)C(C)(C)CCC1 [TRETINOIN]
963 nM: [17]; Homo sapiens, CTV-1
283 nM: [44]; Homo sapiens, D283 Med
5700 nM: [10]; Homo sapiens, KY821
7680 nM: [6]; Homo sapiens, NCI-H526
4120 nM: [26]; Homo sapiens, U-266
996 nM: [33]; Homo sapiens, LAMA-84
2270 nM: [14]; Homo sapiens, NCI-H69
257 nM: [7]; Homo sapiens, NB13
> 10000 nM: [1]; Homo sapiens, TE-9 | [2]; Homo sapiens, LU-139 | [3]; Homo sapiens, CCRF-CEM | [4]; Homo sapiens, MS-1 | [48] | [5]; Homo sapiens, GB-1 | [8]; Homo sapiens, SK-MEL-2 | [9]; Homo sapiens, SW684 | [11]; Homo sapiens, NB6 | [12]; Homo sapiens, ES8 | [13]; Homo sapiens, NOS-1 | [15]; Homo sapiens, ONS-76 | [49] | [16]; Homo sapiens, SJSA-1 | [18]; Homo sapiens, GR-ST | [19]; Homo sapiens, LC-2-ad | [20]; Homo sapiens, JVM-3 | [21]; Homo sapiens, NCI-H1838 | [22]; Homo sapiens, MZ7-mel | [50] | [51] | [23]; Homo sapiens, KURAMOCHI | [24] | [25]; Homo sapiens, HD-MY-Z | [27]; Homo sapiens, NMC-G1 | [28]; Homo sapiens, MN-60 | [29]; Homo sapiens, TK-10 | [30]; Homo sapiens, KGN | [31]; Homo sapiens, KG-1 | [32]; Homo sapiens, LU-134-A | [34]; Homo sapiens, VA-ES-BJ | [35]; Homo sapiens, SF-126 | [36]; Homo sapiens, 8-MG-BA | [37]; Homo sapiens, MHH-PREB-1 | [38]; Homo sapiens, A101D | [39]; Homo sapiens, LNCaP-Clone-FGC | [40]; Homo sapiens, GI-ME-N | [41]; Homo sapiens | [42]; Homo sapiens, CAS-1 | [45]; Homo sapiens, K5 | [46]; Homo sapiens, HCE-T | [47]; Homo sapiens, NCI-H1092
